Measured values reported in publication PMC4473678, “Swedish mutant APP-based BACE1 binding site peptide reduces APP β-cleavage and cerebral Aβ levels in Alzheimer’s mice” (Scientific Reports, 2015).
Entries after “also recorded” stand apart in the source; their conditions may differ.

Legend:
WT mice [1] = assay: Radial arm water maze (RAWM), WT mice; assay type: in vivo, mouse; conditions: 100 nmol/kg i.p. daily, 8 weeks, n = 10 per treatment, listed as TAT-APPsweBBP
5XFAD mice [2] = assay: β-amyloid immunohistochemistry (4G8), 5XFAD mice; assay type: in vivo, mouse; conditions: 100 nmol/kg i.p. daily, 8 weeks, RSC, EC and H regions, n = 10, 5 female/5 male, listed as TAT-APPsweBBP
Protocol: (§1) Transgenic AD mice [5XFAD; B6SJL-Tg(APPSwFlLon,PSEN1*M146L*L286V) 6799Vas/Mmjax] at 2.5 months of age were obtained from the Jackson Laboratory (Bar Harbor, ME) and housed and maintained in the Animal Facility of College of Medicine at University of South Florida (USF). The mice at 3.5 months of age were treated with TAT-APPsweBBP, TAT peptide (100 nmol/kg in 100 μL PBS) or PBS (100 μL) daily by intraperitioneal injection (i.p.) for eight consecutive weeks. The mice were subjected to behavioral testing after 8-week treatment and then euthanized for immunohistochemical, WB and ELISA analyses. Animals were housed and maintained at USF and all experiments were in compliance with protocols approved by USF Institutional Animal Care and Use Committee. All methods were performed in accordance with relevant guidelines and regulations.
For paraffin brain tissues, we sectioned five coronal sections per region with a 100-μm interval and a thickness of 5-μm for retrosplenial cortex (RSC), entorhinal cortex (EC), and hippocampus (H), located at bregma −2.92 to −3.64 mm. […] Images were acquired as digitized tagged-image format files (to retain maximum resolution) using a BX60 microscope with an attached CCD camera system (DP-70, Olympus, Tokyo, Japan), and digital images were routed into a Windows PC for quantitative analyses using SimplePCI software (Hamamatsu Photonics, Hamamatsu, Shizuoka, Japan). […]

WT mice [3] = assay: Rotarod test, WT mice; assay type: in vivo, mouse; conditions: 100 nmol/kg i.p. daily, 8 weeks, n = 10 per treatment
BACE1 in CHO/APPwt cells = assay: Co-localization with BACE1 in CHO/APPwt cells (immunocytochemistry); assay type: cell-based, Chinese hamster; conditions: biotin-labeled peptide 20 μM, 30 min, anti-BACE1 and anti-biotin staining
Protocol: (§2) Following application of blocking buffer, these cells were stained with mouse anti-BACE1 and anti-biotin antibodies overnight at 4 °C for immunocytochemical analysis. In order to determine the inhibitory effects of TAT-APPsweBBP on BACE1-mediated APP β-cleavage and subsequent Aβ production, both CHO/APPwt and CHO/APPswe cells were plated in 24 well-plates (3×10^5/well) and treated with TAT-APPsweBBP at 0 to 20 μM for 24 h. The cultured media were collected for Aβ and sAPPα analysis by ELISA and WB. Cell lysates were also prepared for analysis of APP amyloidogenic processing by WB.

recombinant BACE1 = assay: BACE1 activity (FRET) assay, cell-free; assay type: biochemical
Protocol: The BACE1 inhibiting activity of APP-based BACE1 site binding peptides were determined using a fluorescence resonance energy transfer (FRET) assay (Pan Vera Co., Madison, WI), which employs a recombinant baculovirus-expressed BACE1 and a specific substrate (Rh-[…]-quencher) that is based on the APPswe mutation. This specific peptide substrate becomes highly fluorescent upon enzymatic cleavage. […] Then, 10 μL of BACE1 stop buffer (2.5 M sodium acetate) was added to the mixture. Fluorescence was read using a fluorometer, with excitation at 545 nm and emission at 585 nm.

CHO/APPswe cells = assay: APP processing in CHO/APPswe cells (WB, ELISA); assay type: cell-based, Chinese hamster; conditions: 0 to 20 μM, 24 h
Protocol: Chinese hamster ovary (CHO) cells engineered to express human APPwt (CHO/APPwt cells) or human APPswe (CHO/APPswe cells) were kindly provided by Dr. Stefanie Hahn and Dr. Sascha Weggen (University of Heinrich Heine, Dusseldorf, Germany). As described in our recent report, these cells were cultured in Dulbecco’s modified Eagle’s medium with 10% fetal bovine serum, 1 mM sodium pyruvate and 100 U/mL of penicillin/streptomycin.
as §2
WB analysis was performed as previously described. Briefly, the proteins from the various cell-free suspensions, cell lysates and brain homogenates were electrophoretically separated using 10% bicine/tris gel (8 M urea) for proteins less than 5 kD or 10% tricine/tris gels for larger proteins. Electrophoresed proteins were transferred to polyvinylidene difluoride membranes (Bio-Rad, Richmond, CA), washed and blocked for 2 h at room temperature in Tris-buffered saline containing 5% (w/v) nonfat dry milk (TBS/NFDM). After blocking, membranes were hybridized for 2 h with various primary antibodies, washed and incubated for 1 h with the appropriate HRP-conjugated secondary antibody in TBS/NFDM. Blots were developed using the luminol reagent (Thermo Fisher Scientific, Waltham, MA).
Mouse brains were homogenized in ice-cold lysis buffer for 30 s using a Minilys tissue homogenizer (Bertin Technologies, Montigny-le-Bretonneux, France) set at high speed, allowed to stand for 15 min at 4 °C, and centrifuged at 15000 rpm for 30 min. Soluble Aβ1−40/42 species and sAPPα were directly detected in cultured cell media or brain homogenates using the Aβ1−40/42 (Invitrogen) and sAPPα ELISA kits (IBL-America, Minneapolis, MN). Detergent-insoluble total […] species were detected in brain by extracting pellets in 5 M guanidine HCl buffer, followed by a 1:20 dilution in lysis buffer.

5XFAD mice [4] = assay: Rotarod test, 5XFAD mice; assay type: in vivo, mouse; conditions: 100 nmol/kg i.p. daily, 8 weeks, n = 10 per treatment, listed as TAT-APPsweBBP
Protocol: as §1
The rotarod task was also performed to exclude the possibility that positive effects of any treatment in RAWM test are due to improvements in sensorimotor ability. Mice were positioned on the rod (diameter 3.6 cm) of the equipment (Rotarod 7650 accelerating model; Ugo Basile, Biological Research Apparatus, Varese, Italy), which was initially set at 1.0 rpm. The rod was then allowed to steadily accelerate up to 40.0 rpm over a 3-min session and evaluation was made by monitoring latency to fall.

[5] = *P < 0.05, **P < 0.01, three independent experiments, each triplicated

## YGRKKRRQRRREISEVNLDAEFR [APPsweBBP conjugated with the membrane fusion fragment of HIV-1 Tat protein]
WT mice [1]
  RAWM entry-arm errors: no difference among the various treatment groups; also recorded: no significant difference between WT treatment groups
5XFAD mice [2]
  β-amyloid plaques / 4G8 immunoreactive area: greatly reduced; also recorded: markedly reduced β-amyloid plaques; also recorded: significant differences between TAT-APPsweBBP and TAT peptide treatment groups (**P < 0.01)
WT mice [3]
  rotarod latency to fall: no differences between treatment groups on each day
BACE1 in CHO/APPwt cells; listed as TAT-APPsweBBP
  co-localization with BACE1: much more strongly co-localized with BACE1 protein compared to APPsweBBP
BACE1 in CHO/APPwt cells; listed as TAT-APPsweBPP
  co-localization with BACE1: strong association with BACE1 in both cytoplasmic membrane and intracellular compartments
Recombinant BACE1; FRET assay, APPsweBBP or TAT-APPsweBBP at 0.05, 0.5, 5 and 20 μM (Fig. 1)
  BACE1 inhibition (result in words): competitively inhibits BACE1 activity; also recorded: much higher inhibiting activity than its prototype peptide
Recombinant BACE1; FRET assay, peptide final concentration 20 μM, 90 min, room temperature, read-out: percentage inhibition of BACE1
  inhibition: 93.2 ± 2.73%
Recombinant BACE1; peptide final concentration 20 μM, FRET substrate Rh-EVNLDAEFK-quencher, 90 min, room temperature, dark, ex 545/em 585 nm, mean ± SD
  % of Inhibition of BACE1: 93.23 ± 2.73%
CHO/APPswe cells
  holo APP expression by WB: leaving holo APP expression unaltered
  sAPPα by WB: promoting
  β-CTF by WB: markedly inhibited
CHO/APPswe cells; [5]
  Aβ1−40/42 by ELISA: significantly decreased
  sAPPα by ELISA: increased sAPPα levels in a dose-dependent manner
CHO/APPswe cells; listed as TAT-APPsweBBP
  Aβ by WB: markedly decreased Aβs; also recorded: markedly inhibited
5XFAD mice [4]
  rotarod latency to fall / motor performance: no differences between treatment groups on each day; also recorded: tended to enhance motor activity in 5XFAD mice, as shown by increased latency to fall, but this did not reach a statistical level of significance
